Laboratory results as given in patent US20250213707A1, “COMPOUND FOR INCREASING EFFICACY OF ONCOLYTIC VIRUSES” (ABLEVIA BIOTECH GMBH, priority 2022, published 2025).
Ends that are not written are not given here.

Experiments:
[1] = tested on: polyclonal antibody ab6982; experiment: Epitope mapping of polyclonal antibody ab6982 against cyclic peptides of Ad5 fiber and hexon (peptide array); format: binding, rabbits; details: cyclic peptides of fiber protein (clusters 1-7)
Source text: Polyclonal antibody ab6982 (Abcam) was generated by immunizing rabbits with purified AdV. It reacts with all capsid proteins of Ad5 including hexon, fiber and penton. It was shown that the antibody neutralizes Ad5 infection in a bioassay at 1000 adenovirus 5 particles/ml, a 50% inactivation of the adenovirus can be achieved at a 1/25,000 dilution of the antibody. In order to identify epitopic regions that could contain peptides for ab6982 paratope binding, the antibody was mapped against the sequences of fiber (NCBI Reference Sequence: AP 000226.1) and hexon protein (GenBank: BAG48782.1). […] The binding signal of this antibody to the array yielded several peptides that were aligned and clustered against the sequence of the protein. The peptide clusters were named cluster1-7 (fiber protein) and clusters8-16 (hexon protein) according to their ranked order of cyclic peptide hits (i.e. cluster contains the strongest binders, cluster2 the second strongest etc.). Below are the aligments of the corresponding peptides that bind to polyclonal antibody ab6982.

[2] = tested on: IgG from human donors (anti-AAV antibodies); experiment: Screen for anti-AAV antibodies in human sera, 2452 linear 15-amino-acid AAV peptides on microarrays (Table 1); format: binding; parameters: key to group I: X: the deduplicated aggregate of the respective top 10 peptide hits for each donor was compiled and designated as group I; key to group II: X: the deduplicated aggregate of the respective top 25 peptide hits for each donor was compiled and designated as group II; key to group III: X: the deduplicated aggregate of the respective top 50 peptide hits for each donor was compiled and designated as group III; details: human donor IgG binding to linear 15-amino-acid AAV peptides on microarray, fluorescence; for group I: membership in deduplicated aggregate of top 10 peptide hits for each donor; for group II: membership in deduplicated aggregate of top 25 peptide hits for each donor; for group III: membership in deduplicated aggregate of top 50 peptide hits for each donor
Procedure, shortened: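 Protein G-purified IgG from human donor blood incubated with microarrays of 2452 linear 15-mer peptides from 16 AAVs; binding read by fluorescence. Background-subtracted signals ranked per donor, with top 10, 25, 50 and 250 hits pooled and deduplicated into groups I-IV.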

Sequence | antibody binding signal ranking from the microarray experiment [1] | group I [2] | group II [2] | group III [2]
TTSGTTNQSRLLFS (REGION 1..14: note = peptide derived from viral capsid protein) [SEQ ID NO: 1997] | 041 | X | X | X
NQTDRNAFYCLEYF [SEQ ID NO: 2036] | 072 | – | X | X
RDTDMFGQIADNNQ [SEQ ID NO: 2037] | 073 | – | X | X
SKTANDNNNSNFPW (REGION 1..14: note = peptide derived from viral capsid protein) [SEQ ID NO: 1995] | 035 | X | X | X
GESESVPDPQPIGE [SEQ ID NO: 2058] | 091 | – | X | X
VMITDEEEIRTTNP (REGION 1..14: note = peptide derived from viral capsid protein) [SEQ ID NO: 1998] | 052 | X | X | X
QQRLSKTANDNNNS [SEQ ID NO: 1993] | 019 | X | X | X
HSQSLDRLMNPLLD [SEQ ID NO: 2051] | 008 | – | X | X
KSNNVEFAVNTEGV [SEQ ID NO: 2016] | 009 | – | X | X
ANPGIAMATHKDDE [SEQ ID NO: 2060] | 100 | – | X | X
PVPADPPTTFNQSK (REGION 1..14: note = peptide derived from viral capsid protein) [SEQ ID NO: 2027] | 047 | – | X | X
NNFQFSYTFEDVPF (REGION 1..14: note = peptide derived from viral capsid protein) [SEQ ID NO: 1990] | 003 | X | X | X
TVQVFTDSDYQLPY [SEQ ID NO: 2019] | 013 | – | X | X
THSTLDGRWSALTP (REGION 1..14: note = peptide derived from viral capsid protein) [SEQ ID NO: 2042] | 117 | – | X | X
APGKKRPVEHSPVE (REGION 1..14: note = peptide derived from viral capsid protein) [SEQ ID NO: 1999] | 061 | X | X | X
DKFFPMSGVMIFGK (not fully specified) [SEQ ID NO: 2044] | 147 | – | X | X
KRVLEPLGLVESPV [SEQ ID NO: 2012] | 085 | – | X | X
QTGDADSVPDPQPL (not fully specified) [SEQ ID NO: 2008] | 056 | – | X | X
RDWQRLINNNWGLR [SEQ ID NO: 2038] | 082 | – | X | X
FEKVPFHSMYAHSQ (REGION 1..14: note = peptide derived from viral capsid protein) [SEQ ID NO: 2031] | 058 | – | X | X
NEADAAALEHDKAY (REGION 1..14: note = peptide derived from viral capsid protein) [SEQ ID NO: 2004] | 163 | – | X | X
DIYYQGPIWAKVPH [SEQ ID NO: 2030] | 030 | – | X | X

Sequence | antibody binding signal ranking from the microarray experiment [1] | group I [2] | group II [2] | group III [2]
TVQIFADSTYELPY [SEQ ID NO: 2039] | 093 | – | X | X
QSSNTAPTTRTVND (REGION 1..14: note = peptide derived from viral capsid protein) [SEQ ID NO: 1994] | 024 | X | X | X
HKDDEEKFFPQSGV (REGION 1..14: note = peptide derived from viral capsid protein) [SEQ ID NO: 2002] | 150 | – | X | X
KGEPVNEADAAALE (REGION 1..14: note = peptide derived from viral capsid protein) [SEQ ID NO: 2003] | 153 | – | X | X
LQRGNRQAATADVN (REGION 1..14: note = peptide derived from viral capsid protein) [SEQ ID NO: 2026] | 044 | – | X | X
FSAARINSFLTQYS [SEQ ID NO: 2032] | 059 | – | X | X
LFNIQVKEVTTNDG (REGION 1..14: note = peptide derived from viral capsid protein) [SEQ ID NO: 2047] | 172 | – | X | X
STGQVAVQIEWEIE [SEQ ID NO: 2055] | 049 | – | X | X
QVKEVTTNDGVTTI (REGION 1..14: note = peptide derived from viral capsid protein) [SEQ ID NO: 2048] | 173 | – | X | X
MATNNQSLALGETT [SEQ ID NO: 2022] | 021 | – | X | X
EFAWPGASSWALNG (REGION 1..14: note = peptide derived from viral capsid protein) [SEQ ID NO: 2015] | 126 | – | X | X
EGADGVGNASGNWH (REGION 1..14: note = peptide derived from viral capsid protein) [SEQ ID NO: 2046] | 169 | – | X | X
KNTPVPADPPTTFN (REGION 1..14: note = peptide derived from viral capsid protein) [SEQ ID NO: 2011] | 076 | – | X | X
ADPPTTFNQAKLAS [SEQ ID NO: 2009] | 060 | – | X | X
TTSANNLLFTSEEE [SEQ ID NO: 2056] | 078 | – | X | X
MASHKDDEEKFFPM [SEQ ID NO: 1989] | 002 | X | X | X
MVPQYGYCGVVTGK [SEQ ID NO: 2035] | 070 | – | X | X
GGQMATNNQSLALG [SEQ ID NO: 2021] | 020 | – | X | X
MNPGPAMASHKEGE [SEQ ID NO: 2017] | 011 | – | X | X
QIFADSSYELPYVM [SEQ ID NO: 2041] | 112 | – | X | X
AGDNVDYSSVMLTS [SEQ ID NO: 2010] | 065 | – | X | X
